Laboratory results as given in patent US20130136691A1, “GASTRIN […] PEPTIDE COMPOUNDS” (priority 2008, published 2013).

Tests used:
human GRP-R = molecular target: T1, human GRP-R (Homo sapiens, UniProt P30550); assay: Competition assay with 125I-BBN for GRP-R in PC3 cells (IC50); assay type: binding; details: competition with 125I-BBN
T1 construct: host or cells: PC3 / PC-3 human prostate cancer cells (intact, plated)
Protocol: To identify potential lead compounds, an in vitro assay that identifies compounds with high affinity for GRP-R was used.
PC3 (human prostate cancer cell line) were obtained from the American Type Culture Collection and cultured in RPMI 1640 (ATCC) in tissue culture flasks (Corning). This growth medium was supplemented with 10% heat inactivated FBS (Hyclone, SH30070.03), 10 mM HEPES (GibcoBRL, 15630-080), and antibiotic/antimycotic (GibcoBRL, 15240-062) for a final concentration of penicillin-streptomycin (100 units/mL), and fungizone (0.25 μg/mL). […] Cells for experiments were plated at a concentration of 2.0×10^4/well either in 96-well white/clear bottom microtiter plates (Falcon Optilux-I) or 96 well black/clear collagen I cellware plates (Beckton Dickinson Biocoat). Plates were used for binding studies on day 1 or 2 post-plating.
RPMI 1640 (ATCC) supplemented with 20 mM HEPES, 0.1% BSA (w/v), 0.5 mM PMSF (AEBSF), Bacitracin (50 mg/500 ml), pH 7.4. ^125I-BBN (carrier free, 2200 Ci/mmole) was obtained from Perkin-Elmer.
A 96-well plate assay was used to determine the IC50 of various compounds of the invention to inhibit binding of ^125I-BBN to human GRP-R. The following general procedure was followed:
All compounds tested were dissolved in binding buffer and appropriate dilutions were also done in binding buffer. PC3 cells (human prostate cancer cell line) for assay were plated at a concentration of 2.0×10^4/well either in 96-well white/clear bottomed microtiter plates (Falcon Optilux-I) or 96 well black/clear collagen I cellware plates (Beckton Dickinson Biocoat). Plates were used for binding studies on day 1 or 2 post-plating. The plates were checked for confluency (>90% confluent) prior to assay. […] These studies were conducted with an assay volume of 75 μl per well. Triplicate wells were used for each data point. After the addition of the appropriate solutions, plates were incubated for 1 h at 4° C. to prevent internalization of the ligand-receptor complex. Incubation was ended by the addition of 200 μl of ice-cold incubation buffer. Plates were washed 5 times and blotted dry. Radioactivity was detected using either the LKB CompuGamma counter or a microplate scintillation counter.
All of the PC3 studies were performed as described in Example XLIII using ^125I-BBN. Selection of compounds for the assay was based on linker subtype.
PC3 cell lines were obtained from ATCC(CRL-1435) and cultured in RPMI 1640 (ATCC) supplemented with 2 mM L-glutamine, 1.5 g/L Sodium bicarbonate, 10 mM HEPES and 10% FBS. […]
All compounds tested were dissolved in binding buffer and appropriate dilutions were also done in binding buffer. […] Radioactivity was detected using either a LKB CompuGamma counter or a microplate scintillation counter.

[1] = system: GRP receptor binding in PC-3 prostate cancer cells; assay: Single plate assay: dasatinib effect on 177Lu-AMBA binding (Bmax) and proliferation (CCK-F) in PC-3 cells; assay type: cell-based; details: Homo sapiens, 100 nM Dasatinib, read-out: inhibition of growth (cell proliferation)
Protocol: The cells were plated on Day 0 (7.5k/well 96-well PE Scintiplate). […] To determine the cell numbers and the proliferation, 100 uL of 10% CCK-F solution in DPBS (Molecular technologies) was added to the same plate, incubated for 30 min at 37° C. and the relative fluorescence (RFU) measured at 535 nm. Base on the cell numbers and the ^177Lu-binding, the Bmax (fmoles bound/million cells) was calculated, and the results compared with the control.

[2] = system: GRP receptor binding in T47D human breast cancer cells; assay: Effect of drug treatment on GRP receptor binding (177Lu-AMBA) and proliferation in T-47D cells; assay type: cell-based; details: T-47D, relative to untreated control
Excerpt: T-47D breast cancer cells (human metastatic mammary gland ductal adenocarcinoma isolated from pleural effusion, ER+, PR+) were obtained from the American Type Culture Collection.

[3] = system: GRP receptor binding in PC-3 prostate cancer cells; assay: Effect of drug treatment on GRP receptor binding (177Lu-AMBA) and proliferation in PC-3 cells; details: PC-3
Protocol: (§1) RPMI 1640 supplemented with 20 mM HEPES, 0.1% BSA (w/v), 0.5 mM PMSF (AEBSF), bacitracin (50 mg/500 ml), pH 7.4.
(§2) Treatment: BT-474 cells were plated on Day 0 (see above); approximately 24-48 h after plating, treatment Days 1 and 2 (DT1, DT2), the medium was removed and replaced with fresh growth medium (control), or growth medium with the addition of lapatinib (0.1-1.0 μM). […] Incubations were stopped by the addition of 200 μL of ice-cold binding buffer. Plates were washed three more times with binding buffer, 140 μL of scintillation fluid was added to each well, the plates were sealed and analyzed on a Microp plate reader (Microbeta Trilux, Perkin-Elmer).
(§3) Treatment: BT-474 cells were plated on Day 0 and treated on Days 1 and 2 (DT1, DT2).

[4] = breast cancer (30% have HER2/neu, 30% treated respond); cited from earlier work
[5] = system: ZR-75-1 human breast cancer cells; assay: Glucose uptake (2-NBDG) in ZR-75-1 cells after 4-hydroxytamoxifen; assay type: cell-based; details: for % Change in 2-NBDG: ZR-75-1 cells
Protocol: For the glucose uptake study, a fluorescently labeled2-deoxyglucose derivative (2-NBDG) was used. […] The cell numbers were determined with CCK-F treatment as described above.
(§4) The ZR-75-1 cells were seeded at 15K per well onto two 96-well scintiplates on the same day as 2 days study.

[6] = system: GRP receptor binding in BT-474 human breast cancer cells; assay: Effect of drug treatment on GRP receptor binding (177Lu-AMBA) and proliferation in BT-474 cells; details: BT-474; relative to untreated control; drug 0.1-1.0 μM (4-OH Tamoxifen 0.001-0.1 μM)
Protocol: Cells for binding experiments were plated on Day 0 at 5.6×10^4 cells/cm^2 in 96-well white/clear bottom microtiter plates (Falcon Optilux-I), or 96 well black/clear collagen I cellware plates (Beckton Dickinson Biocoat).
as §1, §2, §3

[7] = system: GRP receptor binding in ZR-75-1 human breast cancer cells; assay: 4-hydroxytamoxifen effect on 177Lu-AMBA binding and proliferation in ZR-75-1 cells (2 to 12 days); assay type: cell-based; details: for % Change in Proliferation / % change in 177Lu-AMBA Uptake: ZR-75-1 cells
Protocol: Method: ZR-75-1 breast cancer cell line (human ductal carcinoma with estrogen receptor) was obtained from the American Type Culture Collection (ATCC).
ZR-75-1 cells were plated on Day 0 (40k/well 96-well PE Scintiplate). […] To determine the cell numbers and the proliferation, 100 uL of 10% CCK-F solution in DPBS (Molecular technologies) was added to the same plate, incubated for 30 min at 37° C. and the relative fluorescence (RFU) measured at 535 nm. Based on the cell numbers and the ^177Lu-binding, the Bmax (fmoles bound/million cells) was calculated.
ZR-75-1 breast cancer cell lines were cultured as described above.
as §4

[8] = system: human PC-3 nude mouse model; assay type: in vivo; details: i.v.
Protocol: 10-50 μCi of the HPLC purified compounds were administered to each mouse by i.v. tail vein injection, n=4 per group. At 1 h, 1 and 7 days post injection, the mice were terminated and the organs and tissues were harvested. Radioactivity was assayed in a gamma counter. The data was expressed as percentage of the total administered radioactivity (% ID) for the urine combined with the bladder, as well as for the blood pool; and percentage of the total administered radioactivity per gram (% ID/g) for all the other tested organs.

[9] = system: BT-474 tumor-bearing nude mice; details: 1 hr; + Tamoxifen/+ ES, day 14, n = 3; control 2.18 ± 0.63
Protocol: Female nude mice ([Ncr]-Foxn1) received hormone supplementation by administration of 17β-estradiol via 60 day time released pellets implanted s.c. (0.72 mg/60 Day release; 0.6 mg/kg; Innovative Research of America, Sarasota, Fla.). Four to seven days after beginning hormone treatment, the mice were xenografted with ten million BT-474 cells in Matrigel (1:1 with PBS) s.c. to the flank. The 1713 estradiol is required for tumor cell growth in this model.
Control mice received vehicle-only time release pellets (in addition to hormone support).

[10] = drug 0.1-1.0 μM (4-OH Tamoxifen 0.001-0.1 μM)
[11] = ZR-75-1, 1-100 nM, treatment on days 2 and 3

T1 sequence (P30550 whole entry): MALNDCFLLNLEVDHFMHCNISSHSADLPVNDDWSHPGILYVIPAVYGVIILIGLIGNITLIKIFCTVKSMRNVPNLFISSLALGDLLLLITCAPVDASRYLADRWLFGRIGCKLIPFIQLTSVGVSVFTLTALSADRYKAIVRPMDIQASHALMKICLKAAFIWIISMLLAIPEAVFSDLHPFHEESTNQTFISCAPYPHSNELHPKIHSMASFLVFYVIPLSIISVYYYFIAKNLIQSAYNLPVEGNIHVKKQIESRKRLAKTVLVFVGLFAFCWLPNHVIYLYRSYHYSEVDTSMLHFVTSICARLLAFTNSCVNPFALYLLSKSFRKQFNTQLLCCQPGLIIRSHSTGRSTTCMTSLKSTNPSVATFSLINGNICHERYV

N-[(3β,5β,12α)-3-[[[4,7,10-Tris(carboxymethyl)-1,4,7,10-tetraazacyclododec-1-yl]acetyl]amino]-glycyl-4-aminobenzoyl-L-leucyl-L-tryptophyl-L-alanyl-L-valinyl-glycyl-L-serinyl-L-phenylalanyl-L-methioninamide [Compound L225]
competition for GRP-R in PC3 cells (in words) (human GRP-R): reduces competition at the GRP-R

N-[(3β,5β,12α)-3-[[[4,7,10-Tris(carboxymethyl)-1,4,7,10-tetraazacyclododec-1-yl]acetyl]amino]-glycyl-4-aminobenzoyl-L-glutaminyl-L-tryptophyl-L-alanyl-L-valyl-glycyl-L-histidyl-L-phenylalanyl-L-methioninamide [Compound L228]
competition for GRP-R in PC3 cells (in words) (human GRP-R): maintains GRP-R activity

DO3A-Gly-Abz-4-Gln-Trp-Ala-Val-Gly-His-Phe-Leu-NH2 [Compound L300]
competition for GRP-R in PC3 cells (in words) (human GRP-R): high activity at the GRP-R

Cc1nc(Nc2ncc(C(=O)Nc3c(C)cccc3Cl)s2)cc(N2CCN(CCO)CC2)n1 [dasatinib]
inhibition at 0.1 µM [1]: ≤ 33% | increase in 177Lu-AMBA binding (GRP receptor specific signal per cell) ([2]; drug 0.1-1.0 μM (gefitinib 0.1-10 μM)): up to 500% | increase in 177Lu-AMBA binding (GRP receptor specific signal per cell) ([3]; relative to untreated control, drug 0.1-1.0 μM): up to 250%

Herceptin
overall response [4]: 9%

CC/C(=C(\c1ccc(O)cc1)c1ccc(OCCN(C)C)cc1)c1ccccc1 [4-OH Tamoxifen]
decrease in 177Lu-AMBA binding (GRP receptor specific signal per cell) [2, 10]: up to 35% | GRP receptor specific signal per cell (177Lu-AMBA binding) versus untreated controls, in words [3, 10]: no change | 2-NBDG uptake, long-term treatment, in words ([5]; ZR-75-1, 100 nM, 2-12 days): smaller changes | decrease in glycolysis (2-NBDG uptake) [5, 11]: ~20% | % Change in 2-NBDG ([5]; 100 nM, 5 days of treatment): −47.5% | % Change in 2-NBDG ([5]; 100 nM, 12 days of treatment): 14.5% | decrease in 177Lu-AMBA binding (GRP receptor specific signal per cell) [6]: up to 73% | inhibition of proliferation, long-term treatment ([7]; ZR-75-1, 100 nM everyday, by 12 day): 28% | 177Lu-AMBA uptake, long-term treatment, in words ([7]; ZR-75-1, 100 nM, 2-12 days): significant reduction | cell proliferation, in words [7, 11]: little change | % Change in Proliferation ([7]; 100 nM, 5 days of treatment): −11.3 (±8.3) % | % change in 177Lu-AMBA Uptake ([7]; 100 nM, 5 days of treatment): −77.4 (+1.6) % | % Change in Proliferation ([7]; 100 nM, 12 days of treatment): −28.0 (±14.1) % | % change in 177Lu-AMBA Uptake ([7]; 100 nM, 12 days of treatment): −72.3 (±14.6) % | % Change in Proliferation ([7]; 2 days of treatment): −7.2 (±3.8% | % change in 177Lu-AMBA Uptake ([7]; 2 days of treatment): −65.9 (±9.7) %

CC1(N(CC(=O)O)CC(=O)O)CN(CC(=O)O)[C@@H]2CCCC[C@H]2N(CC(=O)O)C1 [XX100]
Blood 7 d % ID (*72 h timepoint) ([8]; 177Lu complex, 72 h timepoint): 0.00 ± 0.00 % ID | Tumor 7 d % ID/g (*72 h timepoint) ([8]; 177Lu complex, 72 h timepoint): 0.01 ± 0.00 % ID/g | distribution of radioactivity (in words) ([8]; Lu-177 complexes, 1 h, 1 and 7 days): rapidly cleared from the body with little residual localization in any organs or tissue

CC/C(=C(\c1ccccc1)c1ccc(OCCN(C)C)cc1)c1ccccc1 [Tamoxifen]
177Lu-AMBA in Tumor (% ID/g) [9]: 0.70 ± 0.39 % ID/g

N-[(3β,5β,12α)-3-[[[4,7,10-Tris(carboxymethyl)-1,4,7,10-tetraazacyclododec-1-yl]acetyl]amino]-glycyl-4-aminobenzoyl-L-glutaminyl-L-tryptophyl-L-alanyl-glycyl-L-histidyl-L-phenylalanyl-L-leucinamide [Compound L224]
competition for GRP-R in PC3 cells (in words) (human GRP-R): complete loss of binding
